Experimental data taken from US12409158B2, “Combination therapy for treating cancer” (GONGWIN BIOPHARM CO., LTD, priority 2022, dated 2025).

Tests used:
Format in all cases: in vivo, BALB/c nude mice
[1] = system: phosphorylated ERK; experiment: Western blot of phosphorylated ERK in M5 tumors; conditions: vs control group
Method: (§1) The mice were observed daily for clinical signs, weighed them every three days, and at one month after tumor-cell implantation euthanized them with an overdose of anesthetic combined with carbon dioxide. Immediately before sacrificing the mice, the blood was collected from them under anesthesia for hematological assessment. After euthanizing the mice, the tumors were excised immediately. The tumor specimens were divided into two groups. One group was treated with 10% formalin and embedded the specimens in paraffin. These specimens were investigated by hematoxylin and eosin staining; terminal deoxyribonucleotidyl transferase (TdT)-mediated biotin-16-dUTP nick-end labeling (TUNEL assay; APO-BrdU TUNEL Assay Kit, BD Pharmingen, San Diego, CA, USA); and IHC for IL-1β, TNF-α, TGF-β, and CD44, using primary antibodies against these factors (Merck, Billerica, MA, USA). Protein expression was assessed via IHC with the […] mouse/rabbit polymer detection system produced by BioTnA (Kaohsiung, Taiwan). A high-resolution digital microscope (Moticam 2300, Motic Instruments, Richmond, Canada) equipped with Motic Images Plus (version 2.0) was used to capture and analyze the images. […] Protein expression and phosphorylation were quantified with ImageJ (National Institutes of Health, Bethesda, […], USA).

[2] = system: TNF-α; experiment: IHC analysis of TNF-α in M5 tumors; conditions: relative to the control group
Method: (§2) The mice were observed daily for clinical signs, weighed them every three days, and at one month after tumor-cell implantation euthanized them with an overdose of anesthetic combined with carbon dioxide. Immediately before sacrificing the mice, the blood was collected from them under anesthesia for hematological assessment. After euthanizing the mice, the tumors were excised immediately. The tumor specimens were divided into two groups. One group was treated with 10% formalin and embedded the specimens in paraffin. These specimens were investigated by hematoxylin and eosin staining; terminal deoxyribonucleotidyl transferase (TdT)-mediated biotin-16-dUTP nick-end labeling (TUNEL assay; APO-BrdU TUNEL Assay Kit, BD Pharmingen, San Diego, CA, USA); and IHC for IL-1β, TNF-α, TGF-β, and CD44, using primary antibodies against these factors (Merck, Billerica, MA, USA). Protein expression was assessed via IHC with the […] mouse/rabbit polymer detection system produced by BioTnA (Kaohsiung, Taiwan). A high-resolution digital microscope (Moticam 2300, Motic Instruments, Richmond, Canada) equipped with Motic Images Plus (version 2.0) was used to capture and analyze the images. The other groups of tumor specimens were first minced coarsely and homogenized, and then stored in a freezer at -80° C.

[3] = system: TGF-β; experiment: IHC analysis of TGF-β in M5 tumors; conditions: relative to the control group
Method: as §2

[4] = system: cleaved caspase 3; experiment: Western blot of cleaved caspase 3 in M5 tumors; conditions: vs control group
Method: as §1

[5] = system: cyclooxygenase-2 (COX-2); experiment: Western blot of COX-2 in M5 tumors; conditions: vs control group
Method: The mice were observed daily for clinical signs, weighed them every three days, and at one month after tumor-cell implantation euthanized them with an overdose of anesthetic combined with carbon dioxide. Immediately before sacrificing the mice, the blood was collected from them under anesthesia for hematological assessment. After euthanizing the mice, the tumors were excised immediately. The tumor specimens were divided into two groups. One group was treated with 10% formalin and embedded the specimens in paraffin. These specimens were investigated by hematoxylin and eosin staining; terminal deoxyribonucleotidyl transferase (TdT)-mediated biotin-16-dUTP nick-end labeling (TUNEL assay; APO-BrdU TUNEL Assay Kit, BD Pharmingen, San Diego, CA, USA); and IHC for IL-1β, TNF-α, TGF-β, and CD44, using primary antibodies against these factors (Merck, Billerica, MA, USA). Protein expression was assessed via IHC with the TAlink mouse/rabbit polymer detection system produced by BioTnA (Kaohsiung, Taiwan). […]
Western blotting on the second group of tumor specimens was performed according to standard protocol (Wu et al 2020). […] Protein expression and phosphorylation were quantified with ImageJ (National Institutes of Health, Bethesda, […], USA).

| SMILES | phosphorylated ERK expression [1] | TNF-α activity reduction [2] [%] | TGF-β expression reduction [3] | cleaved caspase 3 expression [4] | Expression of cyclooxygenase-2 (COX-2) [5] |
| --- | --- | --- | --- | --- | --- |
| N.N.[Cl][Pt][Cl] [Cisplatin, cisplatin, reference compound] | significantly higher | 77.4 | about 26.6% | significantly higher | lower |
| Cc1ccc(S(N)(=O)=O)cc1 [PTS, p-Toluenesulfonamide] | significantly higher | 73.0 | ~23.3% | significantly higher | lower |
